In patent publication US20220313170A1, “METHOD OF INCREASING COGNITIVE FUNCTION WITH GLUTAMATE RECEPTOR AGONIST” (priority 2019, published 2022):

Key:
[1] = tested on: subjects with schizophrenia; conditions: cited from earlier work
[2] = tested on: subjects with schizophrenia; assay: Correlation of pre-treatment resting-state EEG metrics (power law exponent, beta power) with response to poma treatment (MCCB domain scores), clinical trials NCT00845026 and NCT01052103; format: in vivo, human; conditions: subgroups of patients identified by EEG metrics (Examples 1-3)
Source text: The power spectrum of resting state EEG signals, when viewed in the frequency domain (that is, with frequency of oscillation on the x-axis and power on the y-axis), forms roughly a straight line, when viewed on a log-log plot; see FIG.5 (from Miller et al. […] PLoS Comput Biol 5(12): e1000609)
Mathematically, this can be expressed as log (P)=k−βlog (f), or equivalently, P αf−β1/fβ), where P=power, f=frequency, −β is the slope of the fitted line, and k is a constant. This phenomenon is known by various terms, such as a “power law” spectrum or “1/f noise”. It is often referred to as “scale invariant” or “fractal” behavior (Lowen and Teich, 2005), as the power law exponent, β, is constant regardless of the resolution at which it is calculated.
This study used data from clinical trials NCT00845026 (N=117) and NCT01052103 (N=196), which studied male and female subjects with schizophrenia treated with poma vs. antipsychotic agent standard of care. […] We calculated only power at the stimulated frequency and, for recordings in the resting state, the power law exponent (PLE; also known as the “fractal exponent”). […] We calculated all predictive measures for each EEG electrode. […]

[3] = humans; cited from earlier work

SMILES	Efficacy versus placebo as determined with PANSS total scores ([1]; clinical studies, halted)	Dosage shown to be efficacious ([1]; early phase II monotherapy trial) [mg BID]	Cognitive function in measures of working memory, reasoning/problem solving, and attention/vigilance [2]	Oral absorption and bioavailability [3]
CSCC[C@H](N)C(=O)N[C@@]1(C(=O)O)CS(=O)(=O)[C@H]2[C@H](C(=O)O)[C@H]21 [poma, Pomaglumetad methionil]	not significantly more efficacious than the placebo	40	significant improvement in cognitive function	–
N[C@@]1(C(=O)O)CS(=O)(=O)[C@H]2[C@H](C(=O)O)[C@H]21 [pomaglumetad]	–	–	–	low
